Laboratory results published in patent publication US20120232162A1, “USE OF LUTEIN CONTAINING COMPOSITIONS TO IMPROVE CERTAIN ASPECTS OF MEMORY” (priority 2009, published 2012).
“Also recorded” adds a separate entry of the source.

Assays:
[1] = system: primary culture of neurons; experiment: glutamate neurotoxicity paradigm in primary neuron culture (neurofilament network / neurite length); type: cell-based; conditions: lutein pre-treatment from day 5, 3 concentrations, n=6; 250 μM glutamate for 6 hours on day 12; glutamate control set as 100%; p<0.05 and <0.01
Source text: Glutamate is one of the principal excitatory amino acid in the central nervous system, and as such plays a crucial role in normal physiology. Perturbations in normal regulatory mechanisms of glutamate functions may lead to excessive, neurotoxic activation of glutamate receptors in the brain, which may be detrimental to learning and memory performance in the normal and aging brain. Using a primary culture of neurons, these conditions can be reproduced by glutamate intoxication. Impact on cultured neurons was indicated by morphological changes in the neurofilament cytoskeleton network of the neurons.
Neuroprotective effects of single compounds and combinations of compounds were evaluated by analyzing network density using labelling with an anti-neurofilament antibody (heavy chain 200 kD) specific to mature neuron neurites.
Riluzole (a pharmacological neuroprotective agent) and MK801 were used as inhibitory compounds counteracting neurotoxic effects of glutamate resulting in outgrowth of neurites. Inhibitory MK801 (complete blockage of NMDA-type glutamate receptors) was powerful and led to 100% recovery after intoxication.
Neuroprotective functions of lutein were tested using the schedule shown below:
On day 5, the culture medium was replaced by control culture medium or medium containing lutein (3 concentrations) within physiological range, n=6 per concentration). […]

[2] = system: mice; experiment: IntelliCage side discrimination paradigm (attention, associative learning and memory); type: in vivo; conditions: Lutein 9 mg/kg BW in feed, vs vehicle
Source text: (§1) The cognitive performance of mice treated with lutein and/or zeaxanthin was compared with that of vehicle-treated, age-matched controls in the IntelliCage®, a system which enables automated monitoring of spontaneous and learning behavior of mice in a homecage-like environment (NewBehavior AG, Zurich, Switzerland, www.newbehavior.com; Galsworthy et al. 2005, Behav Brain Res 157: 211-217; Onishchenko et al. 2007, Toxicol Sci 97: 428-437, Mechan et al., 2009, J. Neurosci. Methods, 180:43-51). Individual mice are recognized by sensors within the IntelliCage corners reading a transponder (reference identification tag) which is implanted into the scruff of the mouse's neck.
Each IntelliCage® is essentially a large cage (37.5×55×20.5 cm), into which is placed a metal frame, comprising four recording (operant) chambers. The recording chambers fit into the corners of the cage, each covering a 15×15×21 cm right-angled triangular area of floor space. […]
This module was designed to test attention and associative memory. […] During this module the place errors (i.e. percentage of visits to incorrect corners) and side errors (i.e. percentage of nosepokes at the incorrect side of the correct corner) were recorded.

[3] = system: mice; experiment: IntelliCage associative memory paradigm (negative reinforcement, stress); type: in vivo
Source text: as §1
(§2) Each IntelliCage® is essentially a large cage (37.5×55×20.5 cm), into which is placed a metal frame, comprising four recording (operant) chambers. The recording chambers fit into the corners of the cage, each covering a 15×15×21 cm right-angled triangular area of floor space. In-cage antennae enable automatic monitoring of each individual mouse's corner visits; photo-beams within each corner enable automated recording of individual nosepokes and licks of the water bottle spouts. Four triangular mouse shelters are placed in the center of the cage, above which is situated a food hopper, enabling ad libitum access to food.
Each recording chamber comprises: (1) a plastic ring (30 mm inner diameter) which serves as an entrance into the chamber and houses the circular antenna which registers corner visits; (2) a grid floor, which the mice sit on once they have entered the chamber; (3) two circular openings (13 mm diameter) which enable access to water bottle spouts; each opening is crossed by photo-beams which register nose-pokes; (4) two motorized doors, which allow (door open) or prohibit (door closed) access to the water bottle spouts; (5) two water bottles; (6) tubing, through which air-puffs can be delivered as aversive stimulation; (7) different colored light diodes, which can be used for conditioning experiments (Mechan et al., 2009 J Neurosci Methods 180:43-51). […]

[4] = system: mice; experiment: IntelliCage place learning paradigm (spatial learning and memory); type: in vivo; conditions: Lutein 9 mg/kg BW in feed, vs placebo-fed littermates
Source text: as §1
as §2, with “food. […]” for “food.”

[5] = lutein alone; chronic treatment (4 months); WO 2006/116755; cited from earlier work
[6] = second set of experiments, younger animals, intermediate lutein dose (of 8, 16 and 30 mg/kg/d), vs control group

CC1=C[C@H](O)CC(C)(C)[C@H]1/C=C/C(C)=C/C=C/C(C)=C/C=C/C=C(C)/C=C/C=C(C)/C=C/C1=C(C)C[C@@H](O)CC1(C)C [lutein]
protection of neurons from excitotoxic glutamate neuro-toxicity (neurite length) [1]: significantly protected | side error rate (percentage of nosepokes at the incorrect side of the correct corner) ([2]; active phase): significantly lower | place error rate (percentage of visits to incorrect corners) ([2]; active phase (first 12 h)): higher level of attention and an improved memory performance; also recorded: significantly lower | learning and memorizing the correct place to access water under stressful conditions (air puff punishment) ([3]; Lutein 9 mg/kg BW in feed, vs vehicle-treated littermates): significantly better | performance in the associative memory task, place errors [3, 6]: significant improvement | performance in the associative memory task, side errors [3, 6]: significant improvement | using spatial cues to find and memorize the location of water [4]: significant improvement; also recorded: significantly better | Verbal Fluency test [5]: significant improvement | other cognitive- or mood assessment-tests [5]: did not result in improvements
